Assay results from patent publication US7361349B2, “Peptide, immunogenic composition and vaccine or medical preparation, a method to immunize animals against the hormone LHRH, and analogs of the LHRH tandem repeat peptide and their use as vaccine” (Pepscan Systems B.V., priority 1996, dated 2008).
Entries after “also recorded” stand apart in the source; their conditions may differ. Non-standard residues stand in square brackets, D forms with d. pGlu = O=C1CC[C@@H](C(=O)O)N1

How the values were obtained:
Male piglets = assay: Immunocastration of pigs: testis size and testis weight after immunization; format: in vivo, pig; conditions: for testis weight (g) (median (range)) / number responders/total number: Table 2; for testis weight (g) (median (range)): after slaughter at 13 wpv; for number responders/total number: effectiveness according to testis weight; for testis weight (median range): Table 3; for animals that did not respond to the immunization: number of animals per group of 7
Experimental: Male piglets, approximately 10 weeks of age, were involved in this experiment. The crossbred piglets were housed in half-slatted pens and were given ad libitum access to feed and water.
The piglets were randomly assigned to the treatments, 6 or 7 piglets per treatment. All animals were injected with 2 ml emulsion containing the dimerized tandem GnRH conjugates (i.e., […] peptide) or an emulsion without antigen. Injections were administered intramuscularly in the neck at the start of the experiment (day 0) and 7 weeks later (7 wpv). Thirteen weeks after initial immunization (13 wpv) all animals were slaughtered.
Animals were weighed at day 0 and 7 and 13 wpv. Testis sizes were determined by measuring testis length with Vernier calipers at day 0, and 7, 10 and 13 weeks thereafter. Testis sizes were recorded as average of both testicles.
After slaughter testes were removed, dissected free of epididymes and weighed. Testes weights were recorded as average of both testicles.

[1] = system: peptides used for immunization; assay: Peptide antibodies ELISA of antisera; format: in vivo, pig; conditions: for anti peptide titer at 10 wpv: Table 3, mean titer against the peptide used for immunization
Experimental: Antibodies to the peptides used for immunization were determined with an ELISA. Peptides were coated in the wells of a microtitreplate using glutardialdehyde (GDA). GDA was coated to the surface of the wells by incubation with 0.2% GDA in 0.1 M phosphate buffer (pH 5) for 4 hours at room temperature. Plates were rinsed 3 times for 10 minutes with 0.1 M phosphate buffer (pH 8). One microgram peptide in […] phosphate buffer (0.1 M, pH 8) was coated per well by incubating for 3 hours at 37° C. Plates were stored at −20° C. until used. Thawed plates were rinsed 3 times for 10 minutes with milli Q water containing 8.2 g NaCl, 1.15 g Na2HPO4.2H2O, 0.20 g NaH2PO4.2H2O and 5 ml of a 10% Tween 80 solution in water per liter water.
Serial serum dilutions of the antipeptide sera were allowed to react with the coated peptides for 1 hour at 25° C. After rinsing 3 times for 10 minutes, goat-anti-pig IgG coupled to horseradish peroxidase (Dako, Glastrup, Denmark) was introduced as second antibody for 1 hour and ABTS (Boehringer, Mannheim, Germany) (([…] (2 g/100 ml) in 10 ml substrate buffer to which […] H2O2 (3% solution)) was used as substrate. Absorption was measured at 405 nm.

^125I-GnRH = assay: GnRH antibodies: binding of pig antisera to 125I-GnRH; format: in vivo; conditions: for GnRH binding (average): Table 3, GnRH antibody binding percentage of 125I-GnRH, average per treatment
Experimental: Antibodies to GnRH were determined as described by Meloen et al. (Vaccine 12, 741-746 (1994)). Serial dilutions of the pig antisera were allowed to bind to ^125I-GnRH. Titers are expressed as percentage binding of ^125I-GnRH at a given serum dilution.
(§1) Serum samples of the 10 wpv bleeding (3 weeks post booster immunization) were diluted 1/10000 in PBS with 0.4% BSA (dilution buffer). Fifty μl serum dilution was put in microwell plates and 25 μl peptide solution (0, 0.25, 2.5 or 25 pmol peptide in dilution buffer per well) was added. This mixture was allowed to incubate for 24 hours at 4° C. The next day, 25 μl iodinated GnRH (approximately 13000 cpm) was added and after overnight storage (4° C.) unbound peptide was separated from bound peptide with charcoal. After centrifugation, supernatant was separated, counted and the percentage of iodinated GnRH bound to the antibodies was calculated.

testosterone = assay: Testosterone levels in serum (Coat-a-Count kit); format: in vivo, pig; conditions: for testosterone (pmol/ml) at 13 wpv median (range): Table 3, serum, n.d. = not detectable; for testosterone level (in words): after immunization
Experimental: Blood samples were taken via puncture of the vena jugularis on the same days testis sizes were measured, and also 4 weeks after the initial immunization. Blood samples were kept overnight at 4° C. and the next day serum was obtained by centrifugation (1500 g, 15 min). Serum samples were stored at −20° C. until assayed.
Testosterone levels in serum were determined using a Coat-a-Count kit purchased from DPC laboratories, Los Angeles, Calif.

GnRH-II = assay: GnRH antibody binding competitive radioimmunoassay, competition by GnRH-II; set-up: species or system pig; conditions: for sera with reduced binding to iodinated GnRH after competition by GnRH-II / binding of antibodies to GnRH-II: 10 wpv sera; for sera with reduced binding to iodinated GnRH after competition by GnRH-II / animals whose 10 wpv sera did not bind to GnRH-II: 1/10000 dilution; for sera with reduced binding to iodinated GnRH after competition by GnRH-II: share of sera per treatment; for binding of antibodies to GnRH-II: substantially all animals of the group; for animals whose 10 wpv sera did not bind to GnRH-II: 25 pmol peptide per well
Experimental: To determine whether antibodies raised by the GnRH vaccines according to the present invention discriminated between GnRH-I and GnRH-II, a GnRH antibody binding assay was performed in order to determine whether antibodies rose against GnRH-I-tandem dimer peptide or its alanine replacement analogs bind to GnRH-II or lack binding to GnRH-II. Serum dilutions were preincubated with either GnRH-I, GnRH-II, a control peptide, or no peptide. Next, iodinated GnRH-I was added to compete with the preincubated peptides for binding to the antibodies.
A GnRH antibody binding competitive radioimmunoassay was performed in order to determine whether antibodies raised against G6k-GnRH-tandem (SEQ ID NO: 9) dimer peptide or its alanine replacement analogs bind to GnRH-II or lack binding to GnRH-II. Serum dilutions were preincubated with either GnRH-I, GnRH-II, a control peptide or no peptide. Next, iodinated GnRH-I was added to compete with the preincubated peptides for binding to the antibodies.
This procedure was performed for serum collected before and after booster immunization, as specificity of the antibodies may increase after booster immunization due to antibody maturation.
as §1
Antibodies collected after the first immunization (7 wpv) were tested in a 1/2000 serum dilution and only one peptide dilution was tested (25 pmol/well).

[2] = 7 wpv (before booster), 1/2000 dilution, 25 pmol/well

binding of antibodies to GnRH-II (GnRH-II)	Substance	testes weight (in words) (Male piglets)	testis weight (g) (median (range)) (Male piglets)	number responders/total number (Male piglets)	testis weight (median range) (Male piglets)	anti peptide titer at 10 wpv [1]	GnRH binding (average) (^125I-GnRH) [%]	testosterone (pmol/ml) at 13 wpv median (range) (testosterone)	testosterone level (in words) (testosterone)	sera with reduced binding to iodinated GnRH after competition by GnRH-II (GnRH-II)	animals that did not respond to the immunization (Male piglets)	antibody titers against the peptides used for immunization (in words) [1]	animals whose prebooster sera showed binding to GnRH-II (GnRH-II; [2])	animals whose 10 wpv sera did not bind to GnRH-II (GnRH-II)	prebooster sera with no binding to iodinated GnRH (^125I-GnRH; 7 wpv (before booster), 1/2000 dilution)	prebooster sera that did not recognize GnRH-II (GnRH-II; [2])
	G10A-G6k-GnRH-tandem ([pGlu]HWSY[dK]LRPAQHWSY[dK]LRPAC-NH2; also: dimerized through Cys 21)	low testes weight	14 (11-39) g	7/7	14 (11-39)	3.19	17.6	n.d. (n.d.)	undetectable testosterone levels; also recorded: low testosterone level	all sera						
	L7A-G6k-GnRH-tandem ([pGlu]HWSY[dK]ARPGQHWSY[dK]ARPGC-NH2; also: dimer via Cys21)		20 (12-195) g	6/7	20 (12-195)	3.52	17.6			half of the sera	1					
	P9A-G6k-GnRH-tandem-dimer conjugate ([pGlu]HWSY[dK]LRAGQHWSY[dK]LRAGC-NH2; also: dimerized through Cys 21, ovalbumin conjugate)		23 (8-300) g	6/7	23 (8-300)	2.62	15.8			most of the sera	1	lower than peptide antibody titers of other treatments				
	R8A-G6k-GnRH-tandem ([pGlu]HWSY[dK]LAPGQHWSY[dK]LAPGC-NH2; also: dimer via Cys21)	low testes weight	15 (10-19) g	7/7	15 (10-19)	3.34	17.7	n.d. (n.d.)	undetectable testosterone levels; also recorded: low testosterone level	all sera						
completely lacked binding to GnRH-II	S4A-G6k-GnRH-tandem ([pGlu]HWAY[dK]LRPGQHWAY[dK]LRPGC-NH2; also: dimer via Cys21)	effective in terms of low testes weights; also recorded: low testes weight	36 (10-69) g	7/7	36 (10-69)	3.19	16.9	n.d. (n.d.)	undetectable testosterone levels; also recorded: low testosterone level				all animals	6 out of 7		
	Y5A-G6k-GnRH-tandem ([pGlu]HWSA[dK]LRPGQHWSA[dK]LRPGC-NH2; also: dimer via Cys21)		44 (15-235) g	5/7	44 (15-235)	2.92	11.3			half of the sera	2					
completely lacked binding to GnRH-II	pE1A-G6k-GnRH-tandem-dimer OVA conjugate (Ac-AHWSY[dK]LRPGAHWSY[dK]LRPGC-NH2; also: dimerized through Cys 21, ovalbumin conjugate)	effective in terms of low testes weights	36 (16-65) g	7/7	36 (16-65)	3.24	15.7						4 out of 7	6 out of 7	one	Two
